Columns and labels:
[1] = molecular target: Tyrosine-protein kinase Fes/Fps (Homo sapiens, UniProt P07332); experiment: Inhibition of FES
Ephrin type-A receptor 3 = Ephrin type-A receptor 3 (Homo sapiens, UniProt P29320); experiment: Inhibition of EPHA3
[2] = molecular target: Bromodomain-containing protein 3 (Homo sapiens, UniProt Q15059); experiment: Inhibition of BRD3
Mus musculus [3] = experiment: Antiarthritic activity against collagen-induced arthritis mouse model assessed as mean clinical arthritis score with AUC calculation in at 10 mg/kg, po BID for 14 days; type: functional
[4] = molecular target: Calcium/calmodulin-dependent protein kinase type IV (Homo sapiens, UniProt Q16566); experiment: Inhibition of CAMK4
[5] = Cmax in mouse at 3 mg/kg, po BID; type: ADME, organism-based; parameters: dose 3 mg/kg, route oral; conditions: in vivo
[6] = molecular target: Calcium/calmodulin-dependent protein kinase type II subunit gamma (Homo sapiens, UniProt Q13555); experiment: Inhibition of CAMK2G
[7] = molecular target: 3-phosphoinositide-dependent protein kinase 1 (Homo sapiens, UniProt O15530); experiment: Inhibition of PDPK1
Mus musculus [8] = experiment: Antiarthritic activity against collagen-induced arthritis mouse model assessed as mean clinical arthritis score with AUC calculation in at 0.01 mg/kg, po BID for 14 days; type: functional
[9] = molecular target: Cyclin-dependent kinase 7 (Homo sapiens, UniProt P50613); experiment: Inhibition of CDK7
Cyclin-dependent kinase 7, sequence (P50613 whole entry): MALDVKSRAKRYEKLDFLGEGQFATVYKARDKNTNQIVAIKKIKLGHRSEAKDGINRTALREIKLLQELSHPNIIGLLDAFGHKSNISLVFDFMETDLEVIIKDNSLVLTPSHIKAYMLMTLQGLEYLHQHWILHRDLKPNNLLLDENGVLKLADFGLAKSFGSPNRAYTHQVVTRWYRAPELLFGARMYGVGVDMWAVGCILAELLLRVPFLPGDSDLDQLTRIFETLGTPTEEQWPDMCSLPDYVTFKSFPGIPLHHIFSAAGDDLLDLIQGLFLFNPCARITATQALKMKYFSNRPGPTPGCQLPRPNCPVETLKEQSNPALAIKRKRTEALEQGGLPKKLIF

[10] = molecular target: Fibroblast growth factor receptor 1 (Homo sapiens, UniProt P11362); experiment: Inhibition of FGFR1
[11] = molecular target: Bone morphogenetic protein receptor type-1A (Homo sapiens, UniProt P36894); experiment: Inhibition of BMPR1A
[12] = molecular target: Phosphatidylinositol 4,5-bisphosphate 3-kinase catalytic subunit gamma isoform (Homo sapiens, UniProt P48736); experiment: Inhibition of PIK3Cg
[13] = molecular target: Tyrosine-protein kinase Lck (Homo sapiens, UniProt P06239); experiment: Inhibition of LCK
Tyrosine-protein kinase Lck, sequence (P06239 whole entry): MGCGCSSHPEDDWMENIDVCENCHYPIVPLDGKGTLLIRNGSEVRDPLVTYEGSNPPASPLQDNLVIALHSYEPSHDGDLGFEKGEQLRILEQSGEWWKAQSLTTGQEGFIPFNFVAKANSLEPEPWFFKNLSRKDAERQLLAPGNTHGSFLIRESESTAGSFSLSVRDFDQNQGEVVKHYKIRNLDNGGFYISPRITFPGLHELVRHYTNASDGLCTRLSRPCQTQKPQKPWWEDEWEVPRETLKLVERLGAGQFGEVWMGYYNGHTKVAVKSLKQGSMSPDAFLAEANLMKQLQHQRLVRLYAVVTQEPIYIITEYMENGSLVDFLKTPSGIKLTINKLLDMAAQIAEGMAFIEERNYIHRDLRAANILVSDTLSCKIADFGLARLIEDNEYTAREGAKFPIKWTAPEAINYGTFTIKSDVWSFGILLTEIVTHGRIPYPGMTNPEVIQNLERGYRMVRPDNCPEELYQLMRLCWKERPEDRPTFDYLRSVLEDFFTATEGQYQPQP

[14] = molecular target: Protein kinase C beta type (Homo sapiens, UniProt P05771); experiment: Inhibition of PRKCB
LIM domain kinase 1 = LIM domain kinase 1 (Homo sapiens, UniProt P53667); experiment: Inhibition of LIMK1
Ephrin type-B receptor 2 = Ephrin type-B receptor 2 (Homo sapiens, UniProt P29323); experiment: Inhibition of EPHB2
[15] = molecular target: Cyclin-G-associated kinase (Homo sapiens, UniProt O14976); experiment: Inhibition of GAK
[16] = molecular target: Interleukin-1 receptor-associated kinase 1 (Homo sapiens, UniProt P51617); experiment: Inhibition of IRAK1
[17] = molecular target: Protein kinase C alpha type (Homo sapiens, UniProt P17252); experiment: Inhibition of PRKCA
[18] = molecular target: Serine/threonine-protein kinase TAO2 (Homo sapiens, UniProt Q9UL54); experiment: Inhibition of TAOK2
[19] = molecular target: MAP/microtubule affinity-regulating kinase 4 (Homo sapiens, UniProt Q96L34); experiment: Inhibition of MARK4
[20] = molecular target: Casein kinase I isoform gamma-3 (Homo sapiens, UniProt Q9Y6M4); experiment: Inhibition of CSNK1G3
Aurora kinase A = Aurora kinase A (Homo sapiens, UniProt O14965); experiment: Inhibition of AURKA
Aurora kinase A, sequence (O14965 whole entry): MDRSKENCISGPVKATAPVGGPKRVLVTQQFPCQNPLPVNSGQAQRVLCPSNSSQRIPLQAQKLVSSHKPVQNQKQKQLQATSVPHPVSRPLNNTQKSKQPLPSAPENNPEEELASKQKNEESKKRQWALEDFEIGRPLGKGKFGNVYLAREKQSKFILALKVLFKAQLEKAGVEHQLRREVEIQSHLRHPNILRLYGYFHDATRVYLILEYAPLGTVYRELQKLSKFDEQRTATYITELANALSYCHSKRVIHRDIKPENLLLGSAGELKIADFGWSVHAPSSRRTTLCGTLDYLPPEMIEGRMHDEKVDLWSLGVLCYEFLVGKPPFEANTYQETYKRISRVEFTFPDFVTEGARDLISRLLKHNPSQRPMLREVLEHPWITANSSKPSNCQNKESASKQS

[21] = molecular target: Tyrosine-protein kinase ABL1 (Homo sapiens, UniProt P00519); experiment: Inhibition of ABL1
[22] = molecular target: 5'-AMP-activated protein kinase catalytic subunit alpha-2 (Homo sapiens, UniProt P54646); experiment: Inhibition of PRKAA2
[23] = Cmax in mouse at 10 mg/kg, po BID; type: ADME, organism-based; parameters: dose 10 mg/kg, route oral; conditions: in vivo
[24] = molecular target: Mitogen-activated protein kinase kinase kinase 20 (Homo sapiens, UniProt Q9NYL2); experiment: Inhibition of ZAK
Mitogen-activated protein kinase kinase kinase 20, sequence (Q9NYL2 whole entry): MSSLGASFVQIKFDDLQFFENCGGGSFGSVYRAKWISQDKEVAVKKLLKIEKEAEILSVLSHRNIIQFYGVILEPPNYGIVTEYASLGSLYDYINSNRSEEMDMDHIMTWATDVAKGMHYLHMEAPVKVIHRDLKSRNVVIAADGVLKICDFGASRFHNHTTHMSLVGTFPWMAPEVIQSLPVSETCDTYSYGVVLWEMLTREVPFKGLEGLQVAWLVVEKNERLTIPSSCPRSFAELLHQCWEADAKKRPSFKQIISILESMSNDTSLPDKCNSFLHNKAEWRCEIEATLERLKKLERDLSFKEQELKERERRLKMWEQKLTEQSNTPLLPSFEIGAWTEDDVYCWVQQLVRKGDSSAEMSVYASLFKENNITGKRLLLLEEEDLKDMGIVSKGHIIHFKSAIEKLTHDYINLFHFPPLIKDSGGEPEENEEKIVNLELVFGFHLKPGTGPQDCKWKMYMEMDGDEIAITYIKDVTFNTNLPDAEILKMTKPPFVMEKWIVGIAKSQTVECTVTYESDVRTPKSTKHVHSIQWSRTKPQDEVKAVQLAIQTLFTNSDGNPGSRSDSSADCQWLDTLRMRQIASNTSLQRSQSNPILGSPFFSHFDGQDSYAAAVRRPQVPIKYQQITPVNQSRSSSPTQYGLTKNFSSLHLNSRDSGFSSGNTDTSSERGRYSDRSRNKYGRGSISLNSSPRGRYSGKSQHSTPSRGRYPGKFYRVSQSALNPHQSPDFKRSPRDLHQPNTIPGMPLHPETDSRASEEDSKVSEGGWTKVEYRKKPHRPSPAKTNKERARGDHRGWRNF

[25] = molecular target: Glycogen synthase kinase-3 alpha (Homo sapiens, UniProt P49840); experiment: Inhibition of GSK3A
Cytochrome P450 3A4 = Cytochrome P450 3A4 (Homo sapiens, UniProt P08684); experiment: Inhibition of CYP3A4 at >20 uM; type: ADME
[26] = molecular target: Cyclin-dependent kinase 1 (Homo sapiens, UniProt P06493); experiment: Inhibition of CDC2
[27] = molecular target: Serine/threonine-protein kinase MARK2 (Homo sapiens, UniProt Q7KZI7); experiment: Inhibition of MARK2
[28] = molecular target: Tyrosine-protein kinase Fgr (Homo sapiens, UniProt P09769); experiment: Inhibition of FGR
[29] = molecular target: Mitogen-activated protein kinase kinase kinase kinase 2 (Homo sapiens, UniProt Q12851); experiment: Inhibition of MAP4K2
Mus musculus [30] = experiment: Antiinflammatory activity in mouse air pouch model assessed as effect on IL-8-induced migration of granulocytes into air pouch at 10 mg/kg, po; type: functional
Cytochrome P450 2D6 = Cytochrome P450 2D6 (Homo sapiens, UniProt P10635); experiment: Inhibition of CYP2D6 at >20 uM; type: ADME
[31] = molecular target: Tyrosine-protein kinase JAK1 (Homo sapiens, UniProt P23458); experiment: Inhibition of JAK1
[32] = molecular target: Serine/threonine-protein kinase TAO1 (Homo sapiens, UniProt Q7L7X3); experiment: Inhibition of TAOK1
[33] = molecular target: Casein kinase II subunit alpha' (Homo sapiens, UniProt P19784); experiment: Inhibition of CK2a2
[34] = molecular target: Tyrosine-protein kinase Yes (Homo sapiens, UniProt P07947); experiment: Inhibition of YES1
[35] = AUC in rat […] at 5 mg/kg, po; 1 mg/kg, iv; type: ADME, organism-based
[36] = molecular target: Protein kinase C theta type (Homo sapiens, UniProt Q04759); experiment: Inhibition of PRKCQ
[37] = molecular target: Tyrosine-protein kinase Fer (Homo sapiens, UniProt P16591); experiment: Inhibition of FER
Mus musculus [38] = experiment: Antiarthritic activity against collagen-induced arthritis mouse model assessed as mean clinical arthritis score with AUC calculation in at 3 mg/kg, po BID for 14 days; type: functional
[39] = molecular target: 5'-AMP-activated protein kinase catalytic subunit alpha-1 (Homo sapiens, UniProt Q13131); experiment: Inhibition of PRKAA1
[40] = molecular target: Mitogen-activated protein kinase kinase kinase 5 (Homo sapiens, UniProt Q99683); experiment: Inhibition of MAP3K5
[41] = molecular target: Hepatocyte growth factor receptor (Homo sapiens, UniProt P08581); experiment: Inhibition of MET
Hepatocyte growth factor receptor, sequence (P08581 whole entry): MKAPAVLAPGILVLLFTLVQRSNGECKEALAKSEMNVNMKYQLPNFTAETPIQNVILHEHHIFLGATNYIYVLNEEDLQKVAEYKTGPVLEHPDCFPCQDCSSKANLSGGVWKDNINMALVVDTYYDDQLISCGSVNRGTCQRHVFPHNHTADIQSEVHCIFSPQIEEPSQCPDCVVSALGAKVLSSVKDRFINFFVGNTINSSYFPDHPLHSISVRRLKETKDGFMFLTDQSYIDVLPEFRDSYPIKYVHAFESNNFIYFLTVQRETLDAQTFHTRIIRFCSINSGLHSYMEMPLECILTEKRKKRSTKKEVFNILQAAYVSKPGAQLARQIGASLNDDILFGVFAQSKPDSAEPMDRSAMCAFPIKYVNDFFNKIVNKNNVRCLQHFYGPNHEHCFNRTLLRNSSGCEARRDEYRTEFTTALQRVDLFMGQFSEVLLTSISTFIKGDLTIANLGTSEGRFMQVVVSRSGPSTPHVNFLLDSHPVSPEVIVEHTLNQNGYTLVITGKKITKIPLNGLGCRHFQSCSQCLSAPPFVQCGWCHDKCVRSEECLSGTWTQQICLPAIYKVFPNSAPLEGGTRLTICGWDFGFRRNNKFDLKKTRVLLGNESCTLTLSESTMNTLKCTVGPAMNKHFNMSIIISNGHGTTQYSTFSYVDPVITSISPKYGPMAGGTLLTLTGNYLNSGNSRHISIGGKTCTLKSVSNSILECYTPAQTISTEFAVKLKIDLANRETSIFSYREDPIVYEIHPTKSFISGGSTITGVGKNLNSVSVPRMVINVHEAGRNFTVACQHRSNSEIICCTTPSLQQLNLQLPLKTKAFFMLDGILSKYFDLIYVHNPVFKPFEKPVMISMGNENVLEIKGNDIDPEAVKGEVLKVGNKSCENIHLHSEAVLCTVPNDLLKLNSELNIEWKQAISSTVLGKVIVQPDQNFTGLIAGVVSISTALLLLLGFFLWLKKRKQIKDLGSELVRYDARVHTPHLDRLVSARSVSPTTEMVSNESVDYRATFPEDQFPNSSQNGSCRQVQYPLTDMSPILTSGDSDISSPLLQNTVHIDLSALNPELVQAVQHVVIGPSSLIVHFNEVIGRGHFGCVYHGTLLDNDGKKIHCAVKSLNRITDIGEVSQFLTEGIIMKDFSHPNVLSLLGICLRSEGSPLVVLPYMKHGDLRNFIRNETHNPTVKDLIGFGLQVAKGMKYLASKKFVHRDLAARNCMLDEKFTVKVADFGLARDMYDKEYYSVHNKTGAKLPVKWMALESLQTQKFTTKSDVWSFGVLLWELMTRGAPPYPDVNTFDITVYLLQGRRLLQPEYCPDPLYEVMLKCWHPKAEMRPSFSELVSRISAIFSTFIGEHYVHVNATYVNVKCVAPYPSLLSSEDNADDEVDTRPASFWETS

[42] = molecular target: Dual specificity mitogen-activated protein kinase kinase 1 (Homo sapiens, UniProt Q02750); experiment: Inhibition of MAP2K1
[43] = molecular target: Epidermal growth factor receptor (Homo sapiens, UniProt P00533); experiment: Inhibition of EGFR
[44] = molecular target: Protein kinase C delta type (Homo sapiens, UniProt Q05655); experiment: Inhibition of PRKCD
[45] = molecular target: Mitogen-activated protein kinase kinase kinase 11 (Homo sapiens, UniProt Q16584); experiment: Inhibition of MAP3K11
Mitogen-activated protein kinase kinase kinase 11, sequence (Q16584 whole entry): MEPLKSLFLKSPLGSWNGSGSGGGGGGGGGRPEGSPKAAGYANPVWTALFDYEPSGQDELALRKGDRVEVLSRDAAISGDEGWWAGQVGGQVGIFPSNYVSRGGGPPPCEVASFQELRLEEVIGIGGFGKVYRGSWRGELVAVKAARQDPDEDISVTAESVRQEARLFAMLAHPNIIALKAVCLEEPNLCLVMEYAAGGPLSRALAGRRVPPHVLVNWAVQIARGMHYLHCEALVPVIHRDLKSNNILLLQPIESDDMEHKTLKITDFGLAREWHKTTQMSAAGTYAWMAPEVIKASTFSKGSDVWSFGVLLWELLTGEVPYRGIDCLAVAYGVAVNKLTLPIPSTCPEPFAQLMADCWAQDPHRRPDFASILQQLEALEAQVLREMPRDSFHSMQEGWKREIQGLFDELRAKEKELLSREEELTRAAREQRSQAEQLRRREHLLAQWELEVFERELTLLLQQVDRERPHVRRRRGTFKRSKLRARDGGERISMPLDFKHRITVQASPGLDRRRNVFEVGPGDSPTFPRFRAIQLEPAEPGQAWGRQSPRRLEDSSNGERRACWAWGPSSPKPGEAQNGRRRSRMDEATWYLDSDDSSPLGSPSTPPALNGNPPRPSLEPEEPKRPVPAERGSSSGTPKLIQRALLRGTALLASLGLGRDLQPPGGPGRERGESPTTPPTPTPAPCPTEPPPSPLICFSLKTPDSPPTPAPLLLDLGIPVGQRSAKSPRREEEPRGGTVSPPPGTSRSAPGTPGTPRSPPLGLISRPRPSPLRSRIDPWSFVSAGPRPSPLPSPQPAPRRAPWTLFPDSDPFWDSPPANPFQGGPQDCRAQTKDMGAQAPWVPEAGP

[46] = molecular target: Mitogen-activated protein kinase kinase kinase 3 (Homo sapiens, UniProt Q99759); experiment: Inhibition of MAP3K3
Cytochrome P450 2C9 = Cytochrome P450 2C9 (Homo sapiens, UniProt P11712); experiment: Inhibition of CYP2C9 at >20 uM; type: ADME
[47] = molecular target: Ribosomal protein S6 kinase alpha-4 (Homo sapiens, UniProt O75676); experiment: Inhibition of RPS6KA4

Bromodomain-containing protein 3, sequence (Q15059 whole entry): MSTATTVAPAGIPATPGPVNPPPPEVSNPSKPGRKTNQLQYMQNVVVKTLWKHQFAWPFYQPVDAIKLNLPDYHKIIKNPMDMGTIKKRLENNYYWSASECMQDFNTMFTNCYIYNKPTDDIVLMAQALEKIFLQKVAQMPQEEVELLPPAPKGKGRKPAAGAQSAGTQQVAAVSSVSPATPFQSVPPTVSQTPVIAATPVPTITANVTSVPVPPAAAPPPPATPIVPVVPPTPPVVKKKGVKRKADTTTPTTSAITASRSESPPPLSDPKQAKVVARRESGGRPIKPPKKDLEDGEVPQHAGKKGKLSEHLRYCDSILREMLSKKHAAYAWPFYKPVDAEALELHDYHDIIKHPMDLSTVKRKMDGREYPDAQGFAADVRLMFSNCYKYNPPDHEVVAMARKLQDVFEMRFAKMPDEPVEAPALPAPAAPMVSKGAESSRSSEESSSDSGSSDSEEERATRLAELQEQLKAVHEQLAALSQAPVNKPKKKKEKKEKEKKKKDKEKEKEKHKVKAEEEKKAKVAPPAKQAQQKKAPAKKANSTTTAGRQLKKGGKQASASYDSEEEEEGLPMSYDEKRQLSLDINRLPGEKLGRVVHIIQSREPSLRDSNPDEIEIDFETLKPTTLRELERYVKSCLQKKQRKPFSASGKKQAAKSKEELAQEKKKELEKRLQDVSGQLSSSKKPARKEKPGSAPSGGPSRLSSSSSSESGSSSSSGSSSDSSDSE

CC(C)(C)NS(=O)(=O)c1cncc(-c2ccn3nc(N)nc3c2)c1
42%: Activity (Mus musculus [3])
> 10 µM: IC50 [1] | IC50 (Ephrin type-A receptor 3) | IC50 [2] | IC50 [4] | IC50 [6] | IC50 [7] | IC50 [9] | IC50 [10] | IC50 [11] | IC50 [13] | IC50 [14] | IC50 (LIM domain kinase 1) | IC50 (Ephrin type-B receptor 2) | IC50 [15] | IC50 [16] | IC50 [17] | IC50 [18] | IC50 [19] | IC50 [20] | IC50 (Aurora kinase A) | IC50 [21] | IC50 [22] | IC50 [24] | IC50 [25] | IC50 [26] | IC50 [27] | IC50 [28] | IC50 [29] | IC50 [32] | IC50 [33] | IC50 [34] | IC50 [36] | IC50 [37] | IC50 [39] | IC50 [40] | IC50 [41] | IC50 [42] | IC50 [43] | IC50 [44] | IC50 [45] | IC50 [46] | IC50 [47]
10.2 µM: Cmax [23]
94%: Activity (Mus musculus [8])
4.37 µM: IC50 [31]
73%: Activity (Mus musculus [30])
Active: inhibition (INH) (Cytochrome P450 3A4) | inhibition (INH) (Cytochrome P450 2D6) | inhibition (INH) (Cytochrome P450 2C9)
15.3 µM·h: AUC [35]
30%: Activity (Mus musculus [38])
2.5 µM: Cmax [5]
0.0245 µM: IC50 [12]
